{"source": "patent US20110098177A1", "about": "“METHODS AND COMPOSITIONS OF PLANT MICRONUTRIENTS” (NOVUS INTERNATIONAL INC., priority 2006, published 2011)", "assay_type_in_all_cases": "in vivo", "key": {"Aristotle bell pepper [1]": {"tested_on": "Aristotle bell pepper", "details": "1 week after treatment, scale 0 = no visible injury, 10 = plant death", "method_in_brief": "(§1)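 Florida-47 tomato and Aristotle bell pepper transplants in 2-gal pots with low-nutrient medium (pH 5.36), drip-irrigated; products at three rates in deionized water plus non-ionic surfactant sprayed on newly matured leaves at 3 and 7 WAT. Toxicity scored at 4 WAT (0=no damage, 10=death); foliar tissue analysed at 6 WAT; marketable fruit harvested 4 times (tomato).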"}, "Florida-47 tomato [2]": {"tested_on": "Florida-47 tomato", "details": "1 week after treatment, scale 0 = no visible injury, 10 = plant death", "method_in_brief": "as §1"}, "Florida-47 tomato [3]": {"tested_on": "Florida-47 tomato", "assay": "Marketable yield per plant, greenhouse Fall 2007, tomato", "procedure": "(§2) The following experiments were performed in a green house during the fall of 2007 at GCREC, Balm, University of Florida. Fifteen products, at 3 different application rates were examined. The plot size was 2-gallon pots. Crop set-up, procedures and variables were as follows.\n(§3) Transplants of ‘Florida-47’ tomato and ‘Aristotle’ bell pepper plants in the 4-true leaf stage (about 6 inches tall) were planted in 2-gal pots on Aug. 27, 2007. Pots were filled with a commercially available planting medium. This medium was selected based on the mineral composition of the products to be applied without providing significant nutritional inputs to the crops. Irrigation was provided with drip lines delivering between 0.50 and 0.33 gal/day/pot for tomato and bell pepper, respectively, and the crops were irrigated three times per day. No foliar pesticides were necessary.\n(§4) There were four control treatments corresponding to each target micronutrient in which non-Fe, non-Mn, non-Zn or non-Cu pots received all other essential nutrients under non-limiting conditions.\n(§5) Treatments were applied at three rates (high, medium and low) obtained from the estimated concentration of Zn, Fe, Cu, and Mn foliarly-applied in tomato and bell pepper in field situations (Table 1). Products were weighed and dissolved in 200 ml of deionized water with a non-ionic surfactant and applied to the newly-matured open leaves of each crop at 3 and 7 weeks after transplant (WAT). Treated pots were isolated during application to avoid cross-contamination of other treatments.\n(§6) Medium nutrient concentration was determined 1 week before treatment. The mineral composition of the medium was 26.8 ppm NH4—N, 49 ppm NO3—N, 15.8 ppm P, 91.2 ppm K, 82.3 ppm Ca, 58.2 ppm Mg, 23.9 ppm Na, 125.6 ppm S, 1.33 ppm Fe, 0.39 ppm Mn, 0.35 ppm Zn, 0.05 pp, Cu, 0.04 ppm B, 0 ppm Mo, 0.73 ppm Al, and 12.1 ppm Si. The pH of the medium was 5.36 and the electric conductivity was 1.38 mS/cm. The foliar tissue analysis was performed at 6 WAT and the concentration of N, P, K, Mg, Ca, S, B, Zn, Mn, Fe, and Cu was determined by a commercial laboratory. Plant toxicity was determined at 4 WAT by using a 0-10 visual scale, where 0=no visible damage and 10=total plant death. Marketable fruit weight was collected 2 times in bell pepper and 4 times in tomato following USDA standards.\n(§7) Data were analyzed using a general linear model, and means were separated using orthogonal contrasts at the 5% significance level."}, "Aristotle bell pepper [4]": {"tested_on": "Aristotle bell pepper", "assay": "Marketable yield per plant, greenhouse Fall 2007, bell pepper", "procedure": "as §2, §3, §4, §5, §6, §7"}, "Tygress tomato plants [5]": {"tested_on": "Tygress tomato plants", "assay": "Foliar nutrient concentration at 6 WAT, open-field tomato (Examples 7-10)", "details": "6 WAT, open field", "method_in_brief": "(§8)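 Open-field Florida trial, spring 2008: transplants at 4-true-leaf stage on drip-irrigated raised beds were foliar-sprayed at 3 and 5 WAT (BIOX-CM at 4 and 5 WAT) at 60 gal/acre with non-ionic surfactant. Most recent mature leaves were sampled at 6 WAT. Tomato fruit was USDA-graded and analysed for minerals.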"}, "[6]": {"tested_on": "Patriot bell pepper plants", "assay": "Foliar nutrient concentration at 6 WAT, open-field bell pepper (Examples 7-10)", "details": "6 WAT, open field", "method_in_brief": "as §8"}, "Tygress tomato plants [7]": {"tested_on": "Tygress tomato plants", "assay": "Marketable yield, open-field tomato (Examples 7-10)", "details": "open field", "method_in_brief": "as §8"}, "[8]": {"details": "foliar application at 3 and 7 WAT, rates not separated"}}, "note": "Entries after “also recorded” stand apart in the source; their conditions may differ. Where two headings read alike, the source gives them in different places. Marks after values point to notes of the source that are not given here."}
{"smiles": "CSCCC(O)C(=O)[O-].CSCCC(O)C(=O)[O-].[Zn+2]", "note": "(stereo not shown) [BIOX-Z, Zn-HMTBA]", "values": [{"measurement": "Pepper toxicity", "setting": "Aristotle bell pepper [1]; High rate", "result": 0}, {"measurement": "Pepper toxicity", "setting": "Aristotle bell pepper [1]; Low rate", "result": 0}, {"measurement": "Pepper toxicity", "setting": "Aristotle bell pepper [1]; Medium rate", "result": 0}, {"measurement": "Tomato toxicity", "setting": "Florida-47 tomato [2]; High rate", "result": 0}, {"measurement": "Tomato toxicity", "setting": "Florida-47 tomato [2]; Low rate", "result": 0}, {"measurement": "Tomato toxicity", "setting": "Florida-47 tomato [2]; Medium rate", "result": 0}, {"measurement": "Marketable yield per plant, Tomato", "setting": "Florida-47 tomato [3]; [8]", "result": "2.9* lb/plant"}, {"measurement": "Tomato yield compared with control (in words)", "setting": "Florida-47 tomato [3]; foliar applications, P<0.05", "result": "significantly increased"}, {"measurement": "Marketable yield per plant, Pepper", "setting": "Aristotle bell pepper [4]; [8]", "result": "2.9* lb/plant"}, {"measurement": "Bell pepper yield compared with control (in words)", "setting": "Aristotle bell pepper [4]; foliar applications, P<0.05", "result": "significantly increased"}, {"measurement": "Foliar Zn concentration of tomato plants, statement", "setting": "Tygress tomato plants [5]", "result": "highest foliar concentration of Zn; also recorded: significantly higher foliar Zn content"}, {"measurement": "Foliar B concentration of tomato plants", "setting": "Tygress tomato plants [5]; product rate as Table 17", "result": 59, "unit": "ppm"}, {"measurement": "Foliar Ca concentration of tomato plants", "setting": "Tygress tomato plants [5]; product rate as Table 17", "result": 2.2, "unit": "%"}, {"measurement": "Foliar Cu concentration of tomato plants", "setting": "Tygress tomato plants [5]; product rate as Table 17", "result": 338, "unit": "ppm"}, {"measurement": "Foliar Fe concentration of tomato plants", "setting": "Tygress tomato plants [5]; product rate as Table 17", "result": 76, "unit": "ppm"}, {"measurement": "Foliar K concentration of tomato plants", "setting": "Tygress tomato plants [5]; product rate as Table 17", "result": 5.5, "unit": "%"}, {"measurement": "Foliar Mg concentration of tomato plants", "setting": "Tygress tomato plants [5]; product rate as Table 17", "result": 0.78, "unit": "%"}, {"measurement": "Foliar Mn concentration of tomato plants", "setting": "Tygress tomato plants [5]; product rate as Table 17", "result": 198, "unit": "ppm"}, {"measurement": "Foliar N concentration of tomato plants", "setting": "Tygress tomato plants [5]; product rate as Table 17", "result": 4.7, "unit": "%"}, {"measurement": "Foliar P concentration of tomato plants", "setting": "Tygress tomato plants [5]; product rate as Table 17", "result": 0.21, "unit": "%"}, {"measurement": "Foliar Zn concentration of tomato plants", "setting": "Tygress tomato plants [5]; product rate as Table 17", "result": 434, "unit": "a ppm"}, {"measurement": "Foliar Zn concentration of bell pepper plants compared to control, statement", "setting": "[6]", "result": "significantly higher foliar concentration of Zn"}, {"measurement": "Foliar B concentration of bell pepper plants", "setting": "[6]; product rate as Table 17", "result": 62, "unit": "ppm"}, {"measurement": "Foliar Ca concentration of bell pepper plants", "setting": "[6]; product rate as Table 17", "result": 4.4, "unit": "%"}, {"measurement": "Foliar Cu concentration of bell pepper plants", "setting": "[6]; product rate as Table 17", "result": 387, "unit": "ppm"}, {"measurement": "Foliar Fe concentration of bell pepper plants", "setting": "[6]; product rate as Table 17", "result": 121, "unit": "ppm"}, {"measurement": "Foliar K concentration of bell pepper plants", "setting": "[6]; product rate as Table 17", "result": 3.7, "unit": "%"}, {"measurement": "Foliar Mg concentration of bell pepper plants", "setting": "[6]; product rate as Table 17", "result": 0.50, "unit": "%"}, {"measurement": "Foliar Mn concentration of bell pepper plants", "setting": "[6]; product rate as Table 17", "result": 240, "unit": "ppm"}, {"measurement": "Foliar N concentration of bell pepper plants", "setting": "[6]; product rate as Table 17", "result": 4.2, "unit": "%"}, {"measurement": "Foliar P concentration of bell pepper plants", "setting": "[6]; product rate as Table 17", "result": 0.25, "unit": "%"}, {"measurement": "Foliar Zn concentration of bell pepper plants", "setting": "[6]; product rate as Table 17", "result": 220, "unit": "a ppm"}, {"measurement": "Tomato marketable yield compared to control, statement", "setting": "Tygress tomato plants [7]", "result": "significantly higher than the control tomato harvest; also recorded: higher marketable yield compared to control"}, {"measurement": "Marketable yield, Tomato", "setting": "Tygress tomato plants [7]; lb/acre/season: BIOX-Z 1.3, Cu 6.7, M 23.0, Fe 3.2, INC 4.0, INZ 0.6, CM 10.0, GZ 1.0, GF 4.0, EDZ 1.4, EDM 23.0", "result": 17.5, "unit": "ton/acre"}]}
